# Reference: ChEMBL document CHEMBL1743341, “Cytochrome p450 enzymes mechanism based inhibitors: common sub-structures and reactivity” (Curr Drug Metab, 2005)
# Columns and labels:
# Cytochrome P450 2B1 [1] = biological target: T1, Cytochrome P450 2B1 (Rattus norvegicus, UniProt P00176); experiment: Mechanism based inhibition of rat cytochrome P450 CYP2B1; type: ADME; details: rat
# T1 sequence (P00176 whole entry): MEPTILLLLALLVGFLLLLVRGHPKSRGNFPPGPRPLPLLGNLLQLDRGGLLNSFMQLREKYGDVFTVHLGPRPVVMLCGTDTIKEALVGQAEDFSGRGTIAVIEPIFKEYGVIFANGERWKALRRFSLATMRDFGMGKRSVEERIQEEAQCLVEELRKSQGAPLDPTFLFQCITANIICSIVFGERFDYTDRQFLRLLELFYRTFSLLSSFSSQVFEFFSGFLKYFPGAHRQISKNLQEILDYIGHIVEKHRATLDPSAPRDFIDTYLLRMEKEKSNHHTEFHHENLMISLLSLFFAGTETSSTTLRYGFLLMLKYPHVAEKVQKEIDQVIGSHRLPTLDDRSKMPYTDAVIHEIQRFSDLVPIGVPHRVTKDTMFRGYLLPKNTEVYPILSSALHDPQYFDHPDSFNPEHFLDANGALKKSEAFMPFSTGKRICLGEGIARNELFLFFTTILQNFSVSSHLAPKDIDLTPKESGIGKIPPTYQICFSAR
# CYP2D6 [2] = biological target: T2, CYP2D6 (Homo sapiens, UniProt P10635); experiment: (§1) Mechanism based inhibition of human cytochrome P450 2D6 measured by dextromethorphan O-demethylation using human liver microsomes; type: ADME, Microsome; details: human, human liver microsomes, probe dextromethorphan
# Cytochrome P450 2D6 [3] = biological target: T3, Cytochrome P450 2D6 (Homo sapiens, UniProt P10635); experiment: as §1; type: ADME, Microsome
# Cytochrome P450 3A5 [4] = biological target: T4, Cytochrome P450 3A5 (Homo sapiens, UniProt P20815); experiment: Mechanism based inhibition of human cytochrome P450 3A5 measured by testosterone hydroxylation; type: ADME
# CYP3A4 = CYP3A4 (Homo sapiens, UniProt P08684); experiment: (§2) Mechanism based inhibition of human cytochrome P450 3A4 measured by nifedipine oxidation, omeprazole 3-hydroxylation and omeprazole sulfoxydation; type: ADME; details: human
# Cytochrome P450 3A4 [5] = biological target: T5, Cytochrome P450 3A4 (Homo sapiens, UniProt P08684); experiment: as §2; type: ADME
# Cytochrome P450 3A4 [6] = biological target: T5, Cytochrome P450 3A4; experiment: Mechanism based inhibition of human cytochrome P450 3A4 measured by testosterone 6-beta hydroxylation; type: ADME
# CYP2B1 = biological target: T6, CYP2B1 (Rattus norvegicus, UniProt P00176); experiment: (§3) Mechanism based inhibition of rat cytochrome P450 CYP2B1 measured by 7-EFC O-deethylation activity; type: ADME; details: rat, probe 7-EFC (O-deethylation)
# T6 sequence (P00176 whole entry): T1 sequence (P00176 whole entry)
# Cytochrome P450 2B1 [7] = biological target: T1, Cytochrome P450 2B1; experiment: as §3; type: ADME
# CYP2B4 = biological target: T7, CYP2B4 (Oryctolagus cuniculus, UniProt P00178); experiment: (§4) Mechanism based inhibition of rabbit cytochrome P450 CYP2B4 measured by 7-EFC O-deethylation activity; type: ADME; details: rabbit, probe 7-EFC (O-deethylation)
# T7 sequence (P00178 whole entry): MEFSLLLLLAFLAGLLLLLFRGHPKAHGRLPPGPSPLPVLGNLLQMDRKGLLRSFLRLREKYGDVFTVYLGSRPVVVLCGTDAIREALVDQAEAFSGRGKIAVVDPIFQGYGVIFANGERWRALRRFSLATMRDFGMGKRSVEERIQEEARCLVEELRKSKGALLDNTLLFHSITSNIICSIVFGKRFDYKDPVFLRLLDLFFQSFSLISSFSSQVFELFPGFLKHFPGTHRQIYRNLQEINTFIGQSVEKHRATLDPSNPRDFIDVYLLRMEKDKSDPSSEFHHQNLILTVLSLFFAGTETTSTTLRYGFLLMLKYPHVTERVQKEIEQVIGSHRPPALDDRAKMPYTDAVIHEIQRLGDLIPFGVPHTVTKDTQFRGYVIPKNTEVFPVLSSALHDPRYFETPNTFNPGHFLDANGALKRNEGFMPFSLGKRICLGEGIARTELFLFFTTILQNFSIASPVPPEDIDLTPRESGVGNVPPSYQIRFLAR
# Cytochrome P450 2B4 = biological target: T8, Cytochrome P450 2B4 (Oryctolagus cuniculus, UniProt P00178); experiment: as §4; type: ADME
# T8 sequence (P00178 whole entry): T7 sequence (P00178 whole entry)
# [8] = biological target: Cytochrome P450 2E1 (Oryctolagus cuniculus) (UniProt P08682); experiment: Mechanism based inhibition of rabbit cytochrome P450 CYP2E1 measured by 7-EFC O-deethylation activity; details: probe 7-EFC (O-deethylation)
# Cytochrome P450 2B1 [9] = biological target: T1, Cytochrome P450 2B1; experiment: Mechanism based inhibition of rat cytochrome P450 CYP2B1 partition ratio; type: ADME
# CYP2D6 [10] = biological target: T2, CYP2D6; experiment: (§5) Mechanism based inhibition of human cytochrome P450 2D6 measured by dextromethorphan O-demethylation; type: ADME; details: human, probe dextromethorphan
# Cytochrome P450 2D6 [11] = biological target: T3, Cytochrome P450 2D6; experiment: as §5; type: ADME
# Cytochrome P450 3A5 [12] = biological target: T4, Cytochrome P450 3A5; experiment: Mechanism based inhibition of human cytochrome P450 3A5; type: ADME
# Cytochrome P450 2C9 = Cytochrome P450 2C9 (Homo sapiens, UniProt P11712); experiment: Mechanism based inhibition of human cytochrome P450 2C9 measured by diclofenac 4-hydroxylation; type: ADME
# Cytochrome P450 1A1 = biological target: T9, Cytochrome P450 1A1 (Homo sapiens, UniProt P04798); experiment: Mechanism based inhibition of human cytochrome P450 1A1 measured by 7-ethoxyresorufin O-deethylation (EROD); type: ADME
# T9 sequence (P04798 whole entry): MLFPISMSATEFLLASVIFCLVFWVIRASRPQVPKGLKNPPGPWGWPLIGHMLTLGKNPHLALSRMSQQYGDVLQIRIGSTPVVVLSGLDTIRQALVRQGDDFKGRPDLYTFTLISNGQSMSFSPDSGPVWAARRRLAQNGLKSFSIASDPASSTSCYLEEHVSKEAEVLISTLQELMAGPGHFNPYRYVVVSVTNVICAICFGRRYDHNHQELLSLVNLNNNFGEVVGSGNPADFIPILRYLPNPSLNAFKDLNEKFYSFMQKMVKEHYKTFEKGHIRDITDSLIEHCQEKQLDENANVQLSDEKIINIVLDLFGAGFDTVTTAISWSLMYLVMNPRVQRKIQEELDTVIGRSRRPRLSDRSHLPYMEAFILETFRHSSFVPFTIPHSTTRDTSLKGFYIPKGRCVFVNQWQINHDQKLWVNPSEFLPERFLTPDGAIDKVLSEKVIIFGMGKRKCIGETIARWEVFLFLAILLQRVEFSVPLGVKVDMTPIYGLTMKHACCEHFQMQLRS
# Cytochrome P450 1A2 = biological target: T10, Cytochrome P450 1A2 (Homo sapiens, UniProt P05177); experiment: Mechanism based inhibition of human cytochrome P450 1A2 measured by 7-ethoxyresorufin O-deethylation (EROD); type: ADME
# T10 sequence (P05177 whole entry): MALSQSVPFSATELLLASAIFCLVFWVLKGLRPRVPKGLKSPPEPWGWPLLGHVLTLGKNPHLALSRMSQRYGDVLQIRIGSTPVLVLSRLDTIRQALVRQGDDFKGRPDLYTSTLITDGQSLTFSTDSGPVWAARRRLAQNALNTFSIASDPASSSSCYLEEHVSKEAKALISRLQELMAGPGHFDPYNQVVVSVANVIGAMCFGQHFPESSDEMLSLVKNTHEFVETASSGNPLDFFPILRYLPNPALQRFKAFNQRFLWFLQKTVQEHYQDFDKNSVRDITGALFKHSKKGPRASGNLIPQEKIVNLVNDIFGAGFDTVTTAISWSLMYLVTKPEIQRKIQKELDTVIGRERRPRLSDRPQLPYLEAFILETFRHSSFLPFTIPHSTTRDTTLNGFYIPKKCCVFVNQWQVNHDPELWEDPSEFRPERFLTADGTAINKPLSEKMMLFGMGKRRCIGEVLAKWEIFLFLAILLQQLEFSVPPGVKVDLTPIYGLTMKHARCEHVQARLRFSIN
# Cytochrome P450 2D6 [13] = biological target: T3, Cytochrome P450 2D6; experiment: Mechanism based inhibition of human cytochrome P450 2D6 measured by […] 1'-hydroxylation; type: ADME
# T5 sequence (P08684 whole entry): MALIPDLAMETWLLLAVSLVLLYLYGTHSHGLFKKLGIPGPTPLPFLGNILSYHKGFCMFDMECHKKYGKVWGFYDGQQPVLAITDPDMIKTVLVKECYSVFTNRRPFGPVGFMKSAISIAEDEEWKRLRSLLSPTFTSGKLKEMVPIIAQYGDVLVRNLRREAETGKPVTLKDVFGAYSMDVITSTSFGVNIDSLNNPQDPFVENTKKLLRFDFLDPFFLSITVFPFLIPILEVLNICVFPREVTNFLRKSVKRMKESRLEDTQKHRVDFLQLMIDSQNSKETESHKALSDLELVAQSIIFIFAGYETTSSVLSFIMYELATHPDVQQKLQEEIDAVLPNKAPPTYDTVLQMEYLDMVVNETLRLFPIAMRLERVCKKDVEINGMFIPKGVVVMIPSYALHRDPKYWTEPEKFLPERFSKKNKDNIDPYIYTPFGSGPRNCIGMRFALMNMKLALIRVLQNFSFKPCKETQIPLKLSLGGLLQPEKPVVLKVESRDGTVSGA
# T3 sequence (P10635 whole entry): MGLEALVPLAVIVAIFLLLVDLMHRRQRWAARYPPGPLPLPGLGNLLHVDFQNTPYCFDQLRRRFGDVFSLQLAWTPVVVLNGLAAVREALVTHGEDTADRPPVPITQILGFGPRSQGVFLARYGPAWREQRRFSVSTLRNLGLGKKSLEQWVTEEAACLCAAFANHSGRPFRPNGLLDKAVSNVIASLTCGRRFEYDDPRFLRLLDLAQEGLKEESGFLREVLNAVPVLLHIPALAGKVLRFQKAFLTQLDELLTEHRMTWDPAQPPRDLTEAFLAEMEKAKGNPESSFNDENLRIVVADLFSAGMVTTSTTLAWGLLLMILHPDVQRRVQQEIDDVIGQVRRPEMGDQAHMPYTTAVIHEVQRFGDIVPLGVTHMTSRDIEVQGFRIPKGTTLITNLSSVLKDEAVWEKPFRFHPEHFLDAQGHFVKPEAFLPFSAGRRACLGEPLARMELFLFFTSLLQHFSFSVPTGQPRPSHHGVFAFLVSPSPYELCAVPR
# T4 sequence (P20815 whole entry): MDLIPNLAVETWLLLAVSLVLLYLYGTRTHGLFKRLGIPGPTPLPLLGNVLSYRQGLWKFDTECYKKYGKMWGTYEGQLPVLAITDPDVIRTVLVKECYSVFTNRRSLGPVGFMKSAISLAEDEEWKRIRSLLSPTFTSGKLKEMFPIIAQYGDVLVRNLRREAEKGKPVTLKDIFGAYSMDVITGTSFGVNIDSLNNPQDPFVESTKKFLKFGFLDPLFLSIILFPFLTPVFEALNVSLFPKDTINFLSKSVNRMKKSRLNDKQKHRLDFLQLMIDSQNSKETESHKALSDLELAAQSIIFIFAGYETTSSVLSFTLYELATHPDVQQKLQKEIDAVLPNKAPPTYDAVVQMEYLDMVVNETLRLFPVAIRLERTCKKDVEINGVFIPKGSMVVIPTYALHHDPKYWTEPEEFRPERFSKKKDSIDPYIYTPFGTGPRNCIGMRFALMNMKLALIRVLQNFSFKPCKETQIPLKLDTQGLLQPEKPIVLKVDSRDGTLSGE
# Sequence of Cytochrome P450 2C9 (P11712 whole entry): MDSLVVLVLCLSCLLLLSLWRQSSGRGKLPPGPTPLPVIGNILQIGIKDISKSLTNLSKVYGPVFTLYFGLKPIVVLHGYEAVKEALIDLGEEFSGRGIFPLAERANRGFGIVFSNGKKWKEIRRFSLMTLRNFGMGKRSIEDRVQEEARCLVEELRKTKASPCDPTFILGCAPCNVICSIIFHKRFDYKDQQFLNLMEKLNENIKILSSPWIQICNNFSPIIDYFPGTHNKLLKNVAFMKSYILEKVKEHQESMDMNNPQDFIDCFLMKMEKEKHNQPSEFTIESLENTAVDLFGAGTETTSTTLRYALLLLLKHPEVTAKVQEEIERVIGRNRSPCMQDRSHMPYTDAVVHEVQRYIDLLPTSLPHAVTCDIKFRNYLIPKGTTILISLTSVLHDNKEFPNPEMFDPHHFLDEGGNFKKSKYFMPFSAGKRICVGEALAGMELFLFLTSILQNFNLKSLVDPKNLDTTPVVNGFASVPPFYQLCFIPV
# T2 sequence (P10635 whole entry): as the sequence (P10635 whole entry) above
# Sequence of CYP3A4 (P08684 whole entry): as the sequence (P08684 whole entry) above
# Sequence of Cytochrome P450 2E1 (Oryctolagus cuniculus) (P08682 whole entry, looked up): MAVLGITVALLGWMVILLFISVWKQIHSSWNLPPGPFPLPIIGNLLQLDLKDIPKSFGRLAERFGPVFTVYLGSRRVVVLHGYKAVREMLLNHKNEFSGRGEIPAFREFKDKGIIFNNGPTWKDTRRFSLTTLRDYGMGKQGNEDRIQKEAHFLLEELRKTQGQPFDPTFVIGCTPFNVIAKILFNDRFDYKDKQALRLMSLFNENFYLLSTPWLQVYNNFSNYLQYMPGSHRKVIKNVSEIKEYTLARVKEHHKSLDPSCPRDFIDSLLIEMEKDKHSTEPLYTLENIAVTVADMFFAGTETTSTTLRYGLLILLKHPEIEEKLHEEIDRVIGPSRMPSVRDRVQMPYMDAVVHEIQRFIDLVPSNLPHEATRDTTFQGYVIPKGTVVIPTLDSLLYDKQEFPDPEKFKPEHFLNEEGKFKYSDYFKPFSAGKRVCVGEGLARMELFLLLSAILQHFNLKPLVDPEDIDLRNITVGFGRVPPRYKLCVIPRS
smiles,measurement,setting,value
CC(C)(OO)c1ccccc1 [CUMENE HYDROPEROXIDE],mechanism based inhibition,Cytochrome P450 2B1 [1],Cytochrome P450 mechanistic inhibitor: PMID 8416964
Fc1cnc(N2CCN(CC3=NC(c4ccccc4)=NC3)CC2)nc1,kinact,CYP2D6 [2],0.00233 s⁻¹
same,Ki,Cytochrome P450 2D6 [3],4800 nM
Cc1c(O)cccc1C(=O)N[C@@H](CSc1ccccc1)[C@H](O)CN1C[C@H]2CCCC[C@H]2C[C@H]1C(=O)NC(C)(C)C,Ki,Cytochrome P450 3A5 [4],570 nM
C=CCC1(C(C)CCC)C(=O)NC(=O)NC1=O (configuration not stated) [SECOBARBITAL],mechanism based inhibition,Cytochrome P450 2B1 [1],Cytochrome P450 mechanistic inhibitor: PMID 8728507
C=C(C)C(CC/C(C)=C/COc1c2ccoc2cc2oc(=O)ccc12)OC(C)(C)C(O)CC/C(C)=C/COc1c2ccoc2cc2oc(=O)ccc12 (configuration not stated),kinact,CYP3A4,0.000833 s⁻¹
same,Ki,Cytochrome P450 3A4 [5],310 nM
same,mechanism based inhibition,Cytochrome P450 3A4 [6],Cytochrome P450 mechanistic inhibitor: PMID 10859150
C/C(=C\COc1c2ccoc2cc2oc(=O)ccc12)CCC(OC(C)(C)C(O)CC/C(C)=C/COc1c2ccoc2cc2oc(=O)ccc12)C(C)(C)O (configuration not stated) [FC726],Ki,Cytochrome P450 3A4 [5],130 nM
same,mechanism based inhibition,Cytochrome P450 3A4 [6],Cytochrome P450 mechanistic inhibitor: PMID 10859150
C#CCN(C)[C@H](C)Cc1ccccc1 [SELEGILINE],kinact,CYP2B1,0.00383 s⁻¹
same,Ki,Cytochrome P450 2B1 [7],1050 nM
C#CC(C)(C)C,kinact,CYP2B4,0.00383 s⁻¹
same,Ki,Cytochrome P450 2B4,75000 nM
same,kinact,[8],0.00333 s⁻¹
S=C=NCc1ccccc1 [BENZYL ISOTHIOCYANATE],kinact,CYP2B1,0.011 s⁻¹
same,Ki,Cytochrome P450 2B1 [7],5800 nM
same,partition_ratio,Cytochrome P450 2B1 [9],9
CCN(CC)CCNC(=O)c1cc(Cl)c(N)cc1OC [METOCLOPRAMIDE],kinact,CYP2D6 [10],0.000433 s⁻¹
same,Ki,Cytochrome P450 2D6 [11],960 nM
CC(C)(C)NC(=O)[C@@H]1CN(Cc2cccnc2)CCN1C[C@@H](O)C[C@@H](Cc1ccccc1)C(=O)N[C@H]1c2ccccc2C[C@H]1O.O,mechanism based inhibition,Cytochrome P450 3A5 [12],Cytochrome P450 mechanistic inhibitor: PMID 15523003
CCOC(=O)C1=C(C)N=C(C)/C(=C(/O)OCC)C1CC (configuration not stated),mechanism based inhibition,Cytochrome P450 2C9,Cytochrome P450 mechanistic inhibitor: PMID 9107543
same,mechanism based inhibition,Cytochrome P450 3A4 [6],Cytochrome P450 mechanistic inhibitor: PMID 9107543
same,mechanism based inhibition,Cytochrome P450 1A1,Cytochrome P450 mechanistic inhibitor: PMID 9107543
same,mechanism based inhibition,Cytochrome P450 1A2,Cytochrome P450 mechanistic inhibitor: PMID 9107543
COc1ccc2c(c1OC)C(=O)O[C@@H]2[C@H]1c2cc3c(cc2CCN1C)OCO3 [HYDRASTINE],mechanism based inhibition,Cytochrome P450 2C9,Cytochrome P450 mechanistic inhibitor: PMID 14570772
same,mechanism based inhibition,Cytochrome P450 2D6 [13],Cytochrome P450 mechanistic inhibitor: PMID 14570772
